Laboratory results taken from PubChem BioAssay AID2020 (NMMLSC, 2009).
The source made the active and inactive calls.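 The calls were made as follows: active = EC50 at or below 30 µM together with a response span of at least a set limit; inactive = the rest.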

Molecular target: Cell division control protein 42 homolog (Homo sapiens) (UniProt P60953)
Experiment: activated Cdc42 mutant GTP binding inhibitors, SAR follow-up, biochemical, pyrazoline analogs, multiplex bead flow cytometry, Ki (AID 2020)
Conditions: bead-based flow cytometry, Bodipy-FL-GTP binding; for Ki: measured here: Ki calculated from EC50

Chain of Cell division control protein 42 homolog (Homo sapiens) (P60953 whole entry, looked up, change not shown): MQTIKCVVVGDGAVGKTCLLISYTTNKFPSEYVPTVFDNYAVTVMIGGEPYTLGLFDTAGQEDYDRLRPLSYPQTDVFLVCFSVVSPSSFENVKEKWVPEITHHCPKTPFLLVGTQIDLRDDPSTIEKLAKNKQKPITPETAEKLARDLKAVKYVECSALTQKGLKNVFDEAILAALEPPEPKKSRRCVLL

| Compound | EC50 | Ki [µM] |
| --- | --- | --- |
| Cc1ccc(-c2cc(C(F)(F)F)nn2-c2ccc(S(N)(=O)=O)cc2)cc1 | > 30 µM (inactive) | – |
| COc1ccc(C2CC(c3ccccc3)=NN2c2ccc(S(N)(=O)=O)cc2)cc1OC (stereo not given) | 6.05 µM | 0.94 |
| Fc1ccccc1C1CC(c2ccc(Br)cc2)=NN1c1ccc(Br)cc1 (stereo not given) | > 30 µM (inactive) | – |
| NS(=O)(=O)c1ccc(N2N=C(c3ccc(Br)cc3)CC2c2ccc(F)cc2)cc1 (stereo not given) | > 30 µM (inactive) | – |
| O=[N+]([O-])c1ccc(N2N=C(c3ccccc3)CC2c2ccc(O)cc2)cc1 (stereo not given) | > 30 µM (inactive) | – |
| O=S(=O)(c1ccc(N2N=C(c3ccccc3)CC2c2ccccc2)cc1)C(F)F (stereo not given) | > 30 µM (inactive) | – |
| COc1cccc(C2CC(c3ccccc3)=NN2c2ccc(S(N)(=O)=O)cc2)c1 (stereo not given) | 4.32 µM | 0.67 |
| Cc1onc(-c2ccccc2)c1-c1ccc(S(N)(=O)=O)cc1 | > 30 µM (inactive) | – |
| O=[N+]([O-])c1cccc(C2CC(c3ccccc3)=NN2c2ccccc2)c1 (stereo not given) | > 30 µM (inactive) | – |
| COc1ccc(C2CC(C)=NN2c2ccc(S(N)(=O)=O)cc2)cc1 (stereo not given) | > 30 µM (inactive) | – |
| NS(=O)(=O)c1ccc(N2N=C(c3ccccc3)CC2c2ccccc2)cc1 (stereo not given) | 16.8 µM | 2.6 |
| Cc1ccccc1N1N=C(c2ccccc2)CC1c1ccc(N(C)C)cc1 (stereo not given) | > 30 µM (inactive) | – |
| COc1ccccc1C1CC(c2ccccc2)=NN1c1ccc(S(N)(=O)=O)cc1 (stereo not given) | > 30 µM (inactive) | – |
| COc1ccc(C2CC(C(C)(C)C)=NN2c2ccc(S(N)(=O)=O)cc2)cc1 (stereo not given) | > 30 µM (inactive) | – |
| FC(F)(F)c1cccc(N2N=C(c3ccc(Cl)cc3)CC2c2ccccc2Cl)c1 (stereo not given) | > 30 µM (inactive) | – |
| CN(C)c1ccc(C2CC(c3ccccc3)=NN2c2ccc([N+](=O)[O-])cc2)cc1 (stereo not given) | > 30 µM (inactive) | – |
| COc1ccc(C2CC(c3cccc(OC)c3)=NN2c2ccc(S(N)(=O)=O)cc2)cc1 (stereo not given) | 1.59 µM | 0.25 |
| COc1ccc(C2CC(c3cccc(N(C)C)c3)=NN2c2ccc(S(N)(=O)=O)cc2)cc1 (stereo not given) | > 30 µM (inactive) | – |
| COc1ccc(C2CC(c3ccc(C(F)(F)F)cc3)=NN2c2ccc(S(N)(=O)=O)cc2)cc1 (stereo not given) | > 30 µM (inactive) | – |
| COc1ccc(C2CC(c3cccc(Br)c3)=NN2c2ccc(S(N)(=O)=O)cc2)cc1 (stereo not given) | inactive | 0.32 |
| Cc1ccccc1N1N=C(c2ccccc2)CC1c1cccc([N+](=O)[O-])c1 (stereo not given) | > 30 µM (inactive) | – |
| COc1ccc(C2CC(c3ccc(F)cc3)=NN2c2cccc(F)c2)cc1OC (stereo not given) | inactive | 4.88 |

Second part, the molecule after the results:

| EC50 | Ki [µM] | Compound |
| --- | --- | --- |
| > 30 µM (inactive) | – | COc1ccc(C2CC(c3ccccc3)=NN2c2ccc(C(N)=O)cc2)cc1 (stereo not given) |
| > 30 µM (inactive) | – | COc1ccc(C2CC(c3ccccc3)=NN2c2ccc([N+](=O)[O-])cc2)cc1 (stereo not given) |
| > 30 µM (inactive) | – | COc1ccc(C2=NN(c3ccccc3F)C(c3ccc(F)cc3)C2)cc1 (stereo not given) |
| inactive | 0.01 | CN(C)c1ccc(C2CC(c3ccccc3)=NN2c2ccccc2)cc1 (stereo not given) |
| inactive | 3.77 | CC(=O)Oc1ccc(C2=NN(c3ccccc3)C(c3ccccc3)C2)cc1 (stereo not given) |
| > 30 µM (inactive) | – | COc1ccc(C2CC(c3ccc(F)cc3)=NN2c2cc(Cl)ccc2Cl)cc1 (stereo not given) |
| > 30 µM (inactive) | – | CN(C)c1ccc(C2CC(c3ccc(Br)cc3)=NN2c2ccccc2)cc1 (stereo not given) |
| 2.88 µM | 0.45 | COc1ccc(C2CC(c3ccccc3Cl)=NN2c2ccc(S(N)(=O)=O)cc2)cc1 (stereo not given) |
| > 30 µM (inactive) | – | COc1ccc(C2CC(c3ccc(Br)cc3)=NN2c2ccccc2Cl)cc1 (stereo not given) |
| > 30 µM (inactive) | – | COc1ccc(C2=NN(c3ccccc3)C(c3ccc(Cl)cc3)C2)cc1 (stereo not given) |
| > 30 µM (inactive) | – | COc1ccc(C2CC(c3ccccc3Br)=NN2c2ccc(S(N)(=O)=O)cc2)cc1 (stereo not given) |
| > 30 µM (inactive) | – | COc1ccc(C2=NN(c3ccc(Cl)c(Cl)c3)C(c3ccc(OC)cc3)C2)cc1 (stereo not given) |
| inactive | 0.36 | COc1ccc(C2CC(c3ccccc3C)=NN2c2ccc(S(N)(=O)=O)cc2)cc1 (stereo not given) |
